Common to all, as to test: Bliss excess, mean over the matrix (fraction); higher = more synergy
The test system of test [1] is MFM-223 (Breast Carcinoma). The method in brief: (§1)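 Cell lines in DMEM/F12 or RPMI with 10% FBS were plated in 1536-well plates, held 24 hours at 37°C, 5% CO2, then given two-drug dose matrices for 72 hours (DMSO typically 0.2%). Viability was read by CellTiter-Glo 2.0 luminescence and scaled as inhibition from 0 (vehicle wells) to 1 (blank wells). Combination Emax is the second-highest inhibition in the matrix; Bliss excess is observed combination effect minus expected EA + EB − EA·EB, EA and EB being single-agent effects.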

The next test deals with TC-71 (Ewing's Sarcoma). The method in brief: as §1
In test [2] the test system is CAMA-1 (Breast Carcinoma). The method in brief: as §1
Test [3] concerns HDQ-P1 (Breast Carcinoma). The method in brief: as §1
The test system of test [4] is DiFi (Colorectal Carcinoma). The method in brief:
as §1

The subject of another test is U251 (Low Grade Glioma). The method in brief:
as §1

Test [5] deals with TOV-112D (Ovarian Carcinoma). The method in brief:
as §1

Test [6] deals with TE-6 (Esophageal Squamous Cell Carcinoma). The method in brief: as §1
Test [7] deals with L-540 (Hodgkin's Lymphoma). The method in brief:
as §1

Test [8] concerns MKN28 (Gastric Carcinoma). The method in brief: as §1
A further test relates to WM-115 (Melanoma). The method in brief: as §1
Test [9] deals with NCI-H1792 (Lung Adenocarcinoma). The method in brief:
as §1

For test [10], the system named is KM12 (Colorectal Carcinoma). The method in brief:
as §1

For test [11], the system named is SW837 (Colorectal Carcinoma). The method in brief:
as §1

In test [12] the test system is EVSA-T (Breast Carcinoma). The method in brief:
as §1

The subject of another test is CHP-212 (Neuroblastoma). The method in brief:
as §1

The subject of another test is MEL-JUSO (Melanoma). The method in brief:
as §1

Test [13] has as its system KYSE-180 (Esophageal Squamous Cell Carcinoma). The method in brief:
as §1

The test system of test [14] is COLO-678 (Colorectal Carcinoma). The method in brief: as §1

Among the data in the supplement of paper PMC11061612 are Bliss excess values, retold here.

Regarding `COc1nnc2ccc(N3CCC(c4ccc(OCCN5CCN(C)C(=O)[C@H]5C)cc4)CC3)nn12` [AZD5153] + C=CCn1c(=O)c2cnc(Nc3ccc(N4CCN(C)CC4)cc3)nc2n1-c1cccc(C(C)(C)O)n1 [AZD1775] (first compound max 1 µM, partner max 1 µM), the Bliss excess in [1] is -0.0679; in the test with TC-71 (Ewing's Sarcoma), 0.0354; in [2] it was -0.0121; in [3] it was -0.041; in [4], -0.0761; in the test on U251 (Low Grade Glioma), 0.0398. Moreover, the Bliss excess is -0.0434 in [5]; -0.0166 in test [6]; -0.0433 in test [7]; -0.0617 in test [8]; -0.11 in the test on WM-115 (Melanoma); -0.0428 in test [9]. For the same compound, the Bliss excess in [10] is -0.0456; in test [11], -0.0653; in test [12], -0.0108; in the test on CHP-212 (Neuroblastoma), -0.0294; in the test with MEL-JUSO (Melanoma) it was 0.0131; in test [13], -0.0323. The Bliss excess in test [14] was -0.0287.
On to `C[C@@H](c1ccc2nccn2c1)n1nnc2ncc(-c3cnn(C)c3)nc21` [Savolitinib] + CC1(C)CCC(CN2CCN(c3ccc(C(=O)NS(=O)(=O)c4ccc(NCC5CCOCC5)c([N+](=O)[O-])c4)c(Oc4cnc5[nH]ccc5c4)c3)CC2)=C(c2ccc(Cl)cc2)C1 [Venetoclax] (first compound max 1 µM, 7x7, partner max 1 µM), for which the Bliss excess is -0.0414 in test [1]; -0.0517 in the test on TC-71 (Ewing's Sarcoma); -0.0211 in test [2]; -0.085 in test [3]; -0.0468 in [4]; -0.0938 with U251 (Low Grade Glioma). The Bliss excess is -0.0489 in test [5]; -0.0559 in test [6]; 0.0201 in test [7]; -0.0464 in test [8]; -0.0346 in the test with WM-115 (Melanoma); -0.0597 in test [9]. Also, the Bliss excess is -0.0559 in test [10]; -0.0813 in test [11]; -0.0269 in test [12]; -0.0707 in the test with CHP-212 (Neuroblastoma); -0.0919 in the test on MEL-JUSO (Melanoma); -0.0326 in test [13]. The Bliss excess in [14] is -0.112.
For `NC1(C(=O)N[C@@H](CCO)c2ccc(Cl)cc2)CCN(c2ncnc3[nH]ccc23)CC1` [Capivasertib] + CC(C)n1c(=O)n(C)c2cnc3cc(F)c(-c4ccc(OCCCN5CCCCC5)nc4)cc3c21 [AZD1390] (first compound max 10 µM, 7x7, partner max 0.3 µM), the Bliss excess was -0.0098 in test [1]; -0.0567 with TC-71 (Ewing's Sarcoma); -0.0558 in test [2]; -0.0442 in [3]; -0.0436 in test [4]; -0.0549 in the test on U251 (Low Grade Glioma). Further, the Bliss excess is -0.0276 in [5]; -0.134 in test [6]; 0.0167 in test [7]; -0.0634 in test [8]; -0.0368 in the test on WM-115 (Melanoma); -0.0625 in test [9]. Moreover, the Bliss excess is -0.0399 in test [10]; -0.0461 in [11]; -0.0326 in test [12]; -0.0965 in the test on CHP-212 (Neuroblastoma); -0.0784 in the test on MEL-JUSO (Melanoma); -0.0509 in test [13]. In addition, in [14], the Bliss excess was -0.0754.
`CC(=O)c1c(C)c2cnc(Nc3ccc(N4CCNCC4)cn3)nc2n(C2CCCC2)c1=O` [Palbociclib] + Cn1cnc2c(F)c(Nc3ccc(Br)cc3Cl)c(C(=O)NOCCO)cc21 [Selumetinib] (first compound max 10 µM, 7x7, partner max 10 µM): the Bliss excess was 0.0341 in [1]; -0.012 with TC-71 (Ewing's Sarcoma); -0.027 in [2]; -0.0555 in test [3]; 0.0274 in test [4]; -0.0013 in the test with U251 (Low Grade Glioma). Further, the Bliss excess was 0.068 in test [5]; 0.0172 in test [6]; -0.071 in test [7]; 0.0275 in [8]; -0.0126 in the test with WM-115 (Melanoma); 0.119 in [9]. In addition, the Bliss excess in [10] was 0.0039; in test [11], 0.0075; in test [12], -0.0035; with CHP-212 (Neuroblastoma) it was -0.0313; in the test on MEL-JUSO (Melanoma), 0.0028; in test [13], -0.0135. Also, in test [14], the Bliss excess was -0.071.
On to `COc1nnc2ccc(N3CCC(c4ccc(OCCN5CCN(C)C(=O)[C@H]5C)cc4)CC3)nn12` [AZD5153] + Cn1cnc2c(F)c(Nc3ccc(Br)cc3Cl)c(C(=O)NOCCO)cc21 [Selumetinib] (first compound max 1 µM, 7x7, partner max 10 µM), for which the Bliss excess is -0.0299 in [1]; 0.0049 in the test on TC-71 (Ewing's Sarcoma); 0.0022 in test [2]; -0.0697 in test [3]; -0.0011 in test [4]; -0.0062 in the test on U251 (Low Grade Glioma). For the same compound, the Bliss excess in test [5] was 0.0303; in test [6], -0.0216; in [7] it was -0.0441; in [8] it was -0.0169; with WM-115 (Melanoma), 0.15; in test [9] it was 0.0577. Moreover, the Bliss excess was -0.0166 in test [10]; -0.0187 in test [11]; -0.031 in [12]; -0.0285 in the test on CHP-212 (Neuroblastoma); 0.0889 with MEL-JUSO (Melanoma); 0.046 in [13]. Also, the Bliss excess in test [14] is -0.0382.
Regarding `CC(=O)c1c(C)c2cnc(Nc3ccc(N4CCNCC4)cn3)nc2n(C2CCCC2)c1=O` [Palbociclib] + CC1(C)CCC(CN2CCN(c3ccc(C(=O)NS(=O)(=O)c4ccc(NCC5CCOCC5)c([N+](=O)[O-])c4)c(Oc4cnc5[nH]ccc5c4)c3)CC2)=C(c2ccc(Cl)cc2)C1 [Venetoclax] (first compound max 10 µM, 7x7, partner max 1 µM), the Bliss excess in [1] is 0.0031; with TC-71 (Ewing's Sarcoma), -0.0129; in test [2], -0.0381; in test [3], -0.0555; in test [4], 0.0239; in the test on U251 (Low Grade Glioma), -0.0348. Also, the Bliss excess in test [5] is 0.0283; in test [6], -0.0255; in test [7], -0.0852; in [8], -0.0461; in the test with WM-115 (Melanoma), -0.0708; in [9], -0.0103. Moreover, the Bliss excess was -0.0041 in test [10]; -0.0671 in test [11]; 0.0048 in test [12]; 0.023 with CHP-212 (Neuroblastoma); -0.0309 with MEL-JUSO (Melanoma); -0.012 in test [13]. For the same compound, the Bliss excess in [14] is 0.0158.
On to `Cc1nc(Nc2ncc(C(=O)Nc3c(C)cccc3Cl)s2)cc(N2CCN(CCO)CC2)n1` [Dasatinib] + CC(=O)Nc1cccc(-n2c(=O)n(C3CC3)c(=O)c3c(Nc4ccc(I)cc4F)n(C)c(=O)c(C)c32)c1 [Trametinib] (first compound max 2 µM, 7x7, partner max 1 µM), for which the Bliss excess in test [1] is -0.0546; in the test on TC-71 (Ewing's Sarcoma), -0.0333; in test [2], -0.0382; in [3] it was -0.0033; in [4] it was -0.0465; in the test on U251 (Low Grade Glioma) it was 0.0682. The Bliss excess in [5] is 0.0773; in [6], -0.0255; in [7], -0.0484; in [8], 0.0027; with WM-115 (Melanoma), 0.118; in [9], 0.0422. Moreover, the Bliss excess was -0.108 in test [10]; 0.0448 in [11]; -0.0361 in test [12]; 0.0235 in the test with CHP-212 (Neuroblastoma); -0.0878 in the test with MEL-JUSO (Melanoma); -0.0424 in test [13]. For the same compound, the Bliss excess in test [14] is -0.0945.
